Columns and labels:
[1] = test system: Lucilia cuprina larvae, laboratory drug-susceptible strain LS; assay: Lucilia cuprina larval bioassay (pupation rate), laboratory strain; format: in vivo; conditions: susceptible strain
Method: Inhibitor efficacy was determined by treating larvae with diazinon over a range of concentrations, in the presence or absence of the compounds at constant concentrations, and comparing pupation rates.
Two strains of L. cuprina were used: 1) a laboratory reference drug-susceptible strain, LS, derived from collections in the Australian Capital Territory over 40 years ago, with no history of exposure to insecticides; and 2) a field-collected strain, Tara, resistant to diazinon and diflubenzuron (Levot, G. W. & Sales, N. New high level resistance to diflubenzuron detected in the Australian sheep blowfly, Lucilia cuprina (Wiedemann) (Diptera: Calliphoridae). Gen. Appl. Entomol. 31, 43-46 (2002)). The LcαE7 gene was sequenced in each of the strains. Briefly, genomic DNA was prepared from 20 adult female flies from each strain using the DNeasy Blood and Tissue kit (Qiagen). PCR was performed with primers specific to the LcαE7 gene, and the product was cloned into a pGEM-T EASY vector (Promega). Eight clones of the susceptible strain and 10 clones of the resistant strain were sequenced using M13 forward and reverse primers.
Each experiment utilized 50 larvae at each diazinon/malathion concentration. Experiments were replicated three times for diazinon, and twice for malathion. The insecticidal effects were defined by measuring the pupation rate. […] Compounds were also without diazinon or malathion at 1 mg per assay.

[2] = target: T1, Electrophorus electricus AChE (Electrophorus electricus, UniProt O42275); assay: AChE selectivity (Ellman, acetylthiocholine); format: biochemical; conditions: tested to solubility limit; read-out: Ki Ee AChE
T1 construct: purchased Sigma Type V-S
T1 sequence (O42275 24-633): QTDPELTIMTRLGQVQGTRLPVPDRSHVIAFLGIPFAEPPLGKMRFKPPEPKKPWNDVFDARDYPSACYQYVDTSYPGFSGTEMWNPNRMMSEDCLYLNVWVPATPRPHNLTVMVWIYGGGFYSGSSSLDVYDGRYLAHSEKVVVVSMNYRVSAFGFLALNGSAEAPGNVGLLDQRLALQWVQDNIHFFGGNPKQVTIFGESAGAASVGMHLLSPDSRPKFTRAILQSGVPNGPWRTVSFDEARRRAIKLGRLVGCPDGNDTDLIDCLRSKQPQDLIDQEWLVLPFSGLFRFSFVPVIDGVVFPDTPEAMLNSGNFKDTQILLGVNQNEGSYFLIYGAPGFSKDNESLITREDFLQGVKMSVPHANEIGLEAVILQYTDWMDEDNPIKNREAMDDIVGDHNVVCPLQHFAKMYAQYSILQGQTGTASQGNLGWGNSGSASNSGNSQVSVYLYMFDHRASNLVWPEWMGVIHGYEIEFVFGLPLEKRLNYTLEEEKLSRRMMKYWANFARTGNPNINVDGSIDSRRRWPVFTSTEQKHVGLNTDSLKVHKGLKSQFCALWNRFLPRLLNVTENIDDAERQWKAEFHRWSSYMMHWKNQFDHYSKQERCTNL
Method: Initially, the KM for AChE with the substrate acetylthiocholine was determined by monitoring thiocholine production with 5,5′-dithiobis(2-nitrobenzoic acid) (DTNB) at 412 nm. Acetylthiocholine was prepared in assay buffer (100 mM NaH2PO4 pH 7.4) to 10 mM and serially diluted 1-in-2 to achieve concentrations from 10 mM to 0.08 mM while AChE was prepared in 20 mM NaH2PO4 pH 7.0 supplemented with 4 mg/ml BSA to 0.4 nM. […] The reaction was initiated by the addition of 20 μl AChE (40 pM final concentration). Product formation was monitored for six minutes at room temperature and the initial rates of thioester hydrolysis were determined by linear regression using GraphPad Prism. The Michalis constant was determined as before (FIG. 10).
AChE inhibition was determined by assaying the initial rate of acetylthiocholine hydrolysis in the presence of either neat DMSO or the boronic acid compounds in DMSO. […] Reactions were prepared by pipetting 178 μl assay buffer supplemented with acetylthiocholine (to a final concentration of 100 μM) and DTBN (to a final concentration of 300 μM) into wells of a 96-well plate. […] The reaction was initiated by the addition of 20 μl enzyme (final concentration 40 pM). Product formation was monitored for six minutes at room temperature and the initial rates of thioester hydrolysis were determined by linear regression. IC50 and Ki values were determined as described previously (FIG. 9).

[3] = test system: Ostrinia nubilalis (European corn borer); assay: CPE combined with boronic acid derivatives on corn leaves; format: in vivo; conditions: for Percentage of efficacy / Evaluation of Larvae number, Mean: boronic acid alone 0.2 mg/ml; for Evaluation of Larvae number, Mean: 12 larvae/box
Method: Treatments were performed by spraying a volume of mixture corresponding to 200 l/ha. 4 boxes/condition.
Drying 1 h at 20° C.; Deposit of three leaf fragments per box on water agar (4 box/condition); Infection of each leaf fragment with 4 Ostrinia nubilalis (12 larvae/box); Incubation 18° C./28° C. […] The percentage of mortality was calculated for each assessment times. Statistical analysis of the data was performed with XLSTAT® software (ANOVAs followed by Newman-Keuls tests with a threshold of 5%, see Table below).

HB-2 cells = assay: Cellular toxicity, Cell Titer Glo; format: cell-based, human
Method: A seven-point, two-fold dose response series, with a 100 uM as the upper limit and a DMSO-only control point was generated using an Echo 550 liquid handler (Labcyte Inc.) in 384-well plates. Subsequently, the human breast cell lines MDA-MB-231 (tumorigenic) and HB2 (non-tumorigenic) were seeded (1000 cells/well) using a multi-drop Combi (Thermo Fisher Scientific) on top of the compounds. Plates were then incubated at 37° C. and 5% CO2 for 48 hours upon which cell viability was assessed by adding CellTiter-Glo® (Promega) to the reaction. The luminescence signal was measured on a Pherastar FS multi-mode plate reader (BMG Labtech).

HCT116 = assay: Cell toxicity panel, viability (luminescence); format: cell-based, human; conditions: Homo sapiens, HCT-116; Readout: Luminescence; read-out: IC50 Viability Cells, Cell line: HCT116
Method: (§1) To further establish the safety and cell toxicity of compounds according to this invention, their IC50 in killing a broad panel of human cell lines (including both cancerous and non-cancerous) cell lines was determined, and their cell toxicity was tested.

Colo205 = assay: Cell toxicity panel, viability (luminescence); format: cell-based, human; conditions: Homo sapiens, COLO 205; Readout: Luminescence; read-out: IC50 Viability Cells, Cell line: Colo205
Method: as §1

HT29 = assay: Cell toxicity panel, viability (luminescence); format: cell-based, human; conditions: Homo sapiens, HT-29; Readout: Luminescence; read-out: IC50 Viability Cells, Cell line: HT29
Method: as §1

PC3 = assay: Cell toxicity panel, viability (luminescence); format: cell-based, human; conditions: Homo sapiens, PC-3; Readout: Luminescence; read-out: IC50 Viability Cells, Cell line: PC3
Method: as §1

H23 = assay: Cell toxicity panel, viability (luminescence); format: cell-based, human; conditions: Homo sapiens, NCI-H23; Readout: Luminescence; read-out: IC50 Viability Cells, Cell line: H23
Method: as §1

Hela = assay: Cell toxicity panel, viability (luminescence); format: cell-based, human; conditions: Homo sapiens, HeLa; Readout: Luminescence; read-out: IC50 Viability Cells, Cell line: Hela
Method: as §1

293T = assay: Cell toxicity panel, viability (luminescence); format: cell-based; conditions: Homo sapiens, HEK-293T; Readout: Luminescence; read-out: IC50 Viability Cells, Cell line: 293T
Method: as §1

In the case of OB(O)c1ccc(OCc2ccccc2F)c(Cl)c1 [Compound 5, 3-Chloro-4(2′-fluorobenzyloxy) phenylboronic acid], the “synergism with diazinon (in words)” value [1] is reported as “No synergism was observed”, the Ki [2] is reported as > 100 µM and the “toxicity of the boronic acid derivative alone (in words)” value ([3]; 0.2 mg/ml, some larvae death with 3.10 and 3.7 at 6 DAT) is reported as “Absence of significant toxicity”. The Percentage of efficacy ([3]; 1 DAT) was 0%, the “Evaluation of Larvae number, Mean” value ([3]; 1 DAT) was 12 and the Percentage of efficacy ([3]; 3 DAT) was 0%. The “Evaluation of Larvae number, Mean” value ([3]; 3 DAT) was 12, the Percentage of efficacy ([3]; 6 DAT) was 4% and the “Evaluation of Larvae number, Mean” value ([3]; 6 DAT) was 10.3. The “toxicity to HB-2 cells (in words)” value (HB-2 cells; 48 h, up to 100 μM) was “low toxicity”, the IC50 (HB-2 cells; Homo sapiens, 48 h incubation, Cell Titer Glo, read-out: Viability IC50 HB-2) was 77.8 µM and the IC50 (HCT116) was 88.5 µM. It also gave an IC50 (Colo205) of 79.4 µM, an IC50 (HT29) of 62.4 µM and an IC50 (PC3) of 83.7 µM. For the same compound, the IC50 (H23) was 92.7 µM, the IC50 (Hela) was 4.8 µM and the IC50 (293T) was 90.3 µM.

Reference: patent publication US20190327974A1, “SYNERGISTS FOR IMPROVED PESTICIDES” (priority 2017, published 2019)
